Assay results taken from patent US12077555B2, “STAT degraders and uses thereof” (Kymera Therapeutics, Inc., priority 2019, dated 2024).
Like-named read-outs stand apart in the source and are kept apart here.

Molecular target: STAT3 (Homo sapiens, UniProt P40763)
Experiment: STAT3 HiBiT degradation assay in transfected A549 cells
Assay type: cell-based
Set-up: expressed in transfected cells; host or cells: A549
Summary of the method: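 Degradation read as HiBiT-tagged STAT3 luminescence (Nano-Glo lytic reagent, 10 min, room temperature) following 24 h compound treatment of transfected A549 cells at 3-fold, 10 points. Percent remaining signal computed against controls and fitted with a four-parameter logistic; DC50 reported as letter bins (A <0.01 to D >1.0 µM).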

[1] = A549, 24 h; read-out: STAT3 HiBiT A549 degradation 24 h: Average external-Abs DC50

STAT3, sequence (P40763 whole entry): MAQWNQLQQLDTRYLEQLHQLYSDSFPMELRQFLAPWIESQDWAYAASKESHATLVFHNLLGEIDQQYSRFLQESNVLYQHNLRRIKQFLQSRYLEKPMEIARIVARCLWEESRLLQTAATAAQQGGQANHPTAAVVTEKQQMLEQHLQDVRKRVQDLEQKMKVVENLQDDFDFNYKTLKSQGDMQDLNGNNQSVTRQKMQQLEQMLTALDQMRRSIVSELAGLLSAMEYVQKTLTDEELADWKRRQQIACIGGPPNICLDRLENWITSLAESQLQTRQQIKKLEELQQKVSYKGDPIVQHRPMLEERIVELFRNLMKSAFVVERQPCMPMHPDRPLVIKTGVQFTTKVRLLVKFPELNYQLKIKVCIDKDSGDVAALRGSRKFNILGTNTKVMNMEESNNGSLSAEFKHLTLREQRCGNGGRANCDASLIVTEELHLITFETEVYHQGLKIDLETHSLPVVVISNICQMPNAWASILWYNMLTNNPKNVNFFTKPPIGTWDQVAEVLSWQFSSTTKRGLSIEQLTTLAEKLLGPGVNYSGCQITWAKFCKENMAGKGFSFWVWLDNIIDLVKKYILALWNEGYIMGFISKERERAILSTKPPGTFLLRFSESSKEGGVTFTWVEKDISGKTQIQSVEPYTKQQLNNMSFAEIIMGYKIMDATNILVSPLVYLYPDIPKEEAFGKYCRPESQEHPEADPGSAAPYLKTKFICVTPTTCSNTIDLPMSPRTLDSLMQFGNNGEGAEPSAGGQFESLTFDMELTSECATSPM

Compound	DC50 [1]	DC50 (read-out: STAT3 HiBiT A549 degradation 24 h: Average external-Abs DC50; A549, 24 h)
Cc1ncsc1-c1ccc([C@H](C)NC(=O)[C@@H]2C[C@@H](O)CN2C(=O)[C@@H](NC(=O)CCCCc2cccc(OC[C@H](CCC(N)=O)NC(=O)[C@@H]3Cc4cccc5c4N3C(=O)[C@@H](NC(=O)c3cc4cc(C(=O)P(=O)(O)O)ccc4[nH]3)CC5)c2Cl)C(C)(C)C)cc1 [Compound I-243]	< 10 nM	–
Cc1ncsc1-c1ccc([C@H](C)NC(=O)[C@@H]2C[C@@H](O)CN2C(=O)[C@@H](NC(=O)CCCCCc2cc(Cl)cc(OC[C@H](CCC(N)=O)NC(=O)[C@@H]3Cc4cccc5c4N3C(=O)[C@@H](NC(=O)c3cc4cc(C(=O)P(=O)(O)O)ccc4[nH]3)CC5)c2F)C(C)(C)C)cc1 [Compound I-244, 2-[[(2S,11S)-2-[[(2S)-4-carbamoyl-1-[5-chloro-2-fluoro-3-(5-[[(2S)-1-[(2S,4R)-4-hydroxy-2-[[(1S)-1-[4-(4-methyl-1,3-thiazol-5-yl)phenyl]ethyl]carbamoyl]pyrrolidin-1-yl]-3,3-dimethyl-1-oxobutan-2-yl]carbamoyl]pentyl)phenoxy]butan-2-yl]carbamoyl]-12-oxo-1-azatricyclo[6.4.1.0^[4,13]]trideca-4(13),5,7-trien-11-yl]carbamoyl]-1H-indole-5-carbonylphosphonic acid]	< 10 nM	–
Cn1c(=O)n(C2CCC(=O)NC2=O)c2ccc(CC3CCC(Cc4cc5c6c(c4)C[C@@H](C(=O)N[C@@H](CCC(N)=O)C(=O)NC(c4ccccc4)c4ccccc4)N6C(=O)[C@@H](NC(=O)c4cc6cc(C(=O)P(=O)(O)O)ccc6[nH]4)CC5)CC3)cc21 (stereo partly drawn) [Compound I-245, 2-[[(2S,11S)-2-[[(1S)-3-carbamoyl-1-(diphenylmethylcarbamoyl)propyl]carbamoyl]-6-[(4-[[1-(2,6-dioxopiperidin-3-yl)-3-methyl-2-oxo-1,3-benzodiazol-5-yl]methyl]cyclohexyl)methyl]-12-oxo-1-azatricyclo[6.4.1.0^[4,13]]trideca-4(13),5,7-trien-11-yl]carbamoyl]-1H-indole-5-carbonylphosphonic acid]	100 to 1000 nM	–
Cc1ncsc1-c1ccc([C@H](C)NC(=O)[C@@H]2C[C@@H](O)CN2C(=O)[C@@H](NC(=O)CCCCc2cccc(NC(=O)C(CCC(N)=O)NC(=O)[C@@H]3Cc4cccc5c4N3C(=O)[C@@H](NC(=O)c3cc4cc(C(=O)P(=O)(O)O)ccc4[nH]3)CC5)c2Cl)C(C)(C)C)cc1 (stereo partly drawn) [Compound I-246, diammonium 2-[[(2S,11S)-2-[(3-carbamoyl-1-[[2-chloro-3-(4-[[(2S)-1-[(2S,4R)-4-hydroxy-2-[[(1S)-1-[4-(4-methyl-1,3-thiazol-5-yl)phenyl]ethyl]carbamoyl]pyrrolidin-1-yl]-3,3-dimethyl-1-oxobutan-2-yl]carbamoyl]butyl)phenyl]carbamoyl]propyl)carbamoyl]-12-oxo-1-azatricyclo[6.4.1.0^[4,13]]trideca-4(13),5,7-trien-11-yl]carbamoyl]-1H-indole-5-carbonylphosphonate]	10 to 100 nM	–
Cc1ncsc1-c1ccc([C@H](C)NC(=O)[C@@H]2C[C@@H](O)CN2C(=O)[C@@H](NC(=O)CCCc2cccc(NC(=O)[C@H](CCC(N)=O)NC(=O)[C@@H]3Cc4cccc5c4N3C(=O)[C@@H](NC(=O)c3cc4cc(C(=O)P(=O)(O)O)ccc4[nH]3)CC5)c2Cl)C(C)(C)C)cc1 [Compound I-247, diammonium 2-[[(2S,11S)-2-[[(1S)-3-carbamoyl-1-[[2-chloro-3-(3-[[(2S)-1-[(2S,4R)-4-hydroxy-2-[[(1S)-1-[4-(4-methyl-1,3-thiazol-5-yl)phenyl]ethyl]carbamoyl]pyrrolidin-1-yl]-3,3-dimethyl-1-oxobutan-2-yl]carbamoyl]propyl)phenyl]carbamoyl]propyl]carbamoyl]-12-oxo-1-azatricyclo[6.4.1.0^[4,13]]trideca-4(13),5,7-trien-11-yl]carbamoyl]-1H-indole-5-carbonylphosphonate]	10 to 100 nM	–
Cc1ncsc1-c1ccc([C@H](C)NC(=O)[C@@H]2C[C@@H](O)CN2C(=O)[C@@H](NC(=O)CCCc2cccc(NC(=O)[C@H](CCC(N)=O)NC(=O)[C@@H]3Cc4cccc5c4N3C(=O)[C@@H](NC(=O)c3cc4cc(C(=O)P(=O)(O)O)ccc4[nH]3)CC5)c2)C(C)(C)C)cc1 [Compound I-248]	10 to 100 nM	–
Cc1ncsc1-c1ccc([C@H](C)NC(=O)[C@@H]2C[C@@H](O)CN2C(=O)[C@@H](NC(=O)CCCCCc2cccc(NC(=O)[C@H](CCC(N)=O)NC(=O)[C@@H]3Cc4cccc5c4N3C(=O)[C@@H](NC(=O)c3cc4cc(C(=O)P(=O)(O)O)ccc4[nH]3)CC5)c2Cl)C(C)(C)C)cc1 [Compound I-249, 2-[[(2S,11S)-2-[[(1S)-3-carbamoyl-1-[[2-chloro-3-(5-[[(2S)-1-[(2S,4R)-4-hydroxy-2-[[(1S)-1-[4-(4-methyl-1,3-thiazol-5-yl)phenyl]ethyl]carbamoyl]pyrrolidin-1-yl]-3,3-dimethyl-1-oxobutan-2-yl]carbamoyl]pentyl)phenyl]carbamoyl]propyl]carbamoyl]-12-oxo-1-azatricyclo[6.4.1.0^[4,13]]trideca-4(13),5,7-trien-11-yl]carbamoyl]-1H-indole-5-carbonylphosphonic acid]	10 to 100 nM	–
Cc1ncsc1-c1ccc([C@H](C)NC(=O)[C@@H]2C[C@@H](O)CN2C(=O)[C@@H](NC(=O)CCCCCc2cccc(NC(=O)[C@H](CCC(N)=O)NC(=O)[C@@H]3Cc4cccc5c4N3C(=O)[C@@H](NC(=O)c3cc4cc(C(=O)P(=O)(O)O)ccc4[nH]3)CC5)c2F)C(C)(C)C)cc1 [Compound I-250, 2-[[(2S,11S)-2-[[(1S)-3-carbamoyl-1-[[2-fluoro-3-(5-[[(2S)-1-[(2S,4R)-4-hydroxy-2-[[(1S)-1-[4-(4-methyl-1,3-thiazol-5-yl)phenyl]ethyl]carbamoyl]pyrrolidin-1-yl]-3,3-dimethyl-1-oxobutan-2-yl]carbamoyl]pentyl)phenyl]carbamoyl]propyl]carbamoyl]-12-oxo-1-azatricyclo[6.4.1.0^[4,13]]trideca-4(13),5,7-trien-11-yl]carbamoyl]-1H-indole-5-carbonylphosphonic acid]	10 to 100 nM	–
Cc1ccc(OC[C@H](CCC(N)=O)NC(=O)[C@@H]2Cc3cccc4c3N2C(=O)[C@@H](NC(=O)c2cc3cc(C(=O)P(=O)(O)O)ccc3[nH]2)CC4)c(F)c1CCCCCC(=O)N[C@H](C(=O)N1C[C@H](O)C[C@H]1C(=O)N[C@@H](C)c1ccc(-c2scnc2C)cc1)C(C)(C)C [Compound I-251]	< 10 nM	–
Cc1ncsc1-c1ccc([C@H](C)NC(=O)[C@@H]2C[C@@H](O)CN2C(=O)[C@@H](NC(=O)CCCCCc2c(F)ccc(OC[C@H](CCC(N)=O)NC(=O)[C@@H]3Cc4cccc5c4N3C(=O)[C@@H](NC(=O)c3cc4cc(C(=O)P(=O)(O)O)ccc4[nH]3)CC5)c2F)C(C)(C)C)cc1 [Compound I-252]	< 10 nM	–
Cc1ncsc1-c1ccc([C@H](C)NC(=O)[C@@H]2C[C@@H](O)CN2C(=O)[C@@H](NC(=O)CCCc2cccc(OC[C@H](CCC(N)=O)NC(=O)[C@@H]3Cc4cccc5c4N3C(=O)[C@@H](NC(=O)c3cc4cc(C(=O)P(=O)(O)O)ccc4[nH]3)CC5)c2Cl)C(C)(C)C)cc1 [Compound I-253]	< 10 nM	–
Cc1ncsc1-c1ccc([C@H](C)NC(=O)[C@@H]2C[C@@H](O)CC2C(=O)[C@@H](NC(=O)OCCCCc2cccc(N(C)CC(CCC(N)=O)NC(=O)[C@@H]3Cc4cccc5c4N3C(=O)[C@@H](NC(=O)c3cc4cc(C(=O)P(=O)(O)O)ccc4[nH]3)CC5)c2F)C(C)(C)C)cc1 (stereo partly drawn) [Compound I-254]	100 to 1000 nM	–
Cn1c(=O)n(C(CCC(N)=O)C(=O)O)c2ccc(C[C@H]3CC[C@@H](CC(=O)N4CC[C@H]5CC[C@@H](C(=O)N[C@@H](CCC(N)=O)C(=O)NC(c6ccccc6)c6ccccc6)N5C(=O)[C@@H](NC(=O)c5cc6cc(C(=O)P(=O)(O)O)ccc6[nH]5)C4)CC3)cc21 (stereo partly drawn) [Compound I-255, 4-carbamoyl-2-(3-methyl-2-oxo-5-[[(1s,4s)-4-[2-[(5S,8S,10aR)-8-[[(1S)-3-carbamoyl-1-(diphenylmethylcarbamoyl)propyl]carbamoyl]-6-oxo-5-[5-(phosphonocarbonyl)-1H-indole-2-amido]-octahydropyrrolo[1,2-a][1,5]diazocin-3-yl]-2-oxoethyl]cyclohexyl]methyl]-1,3-benzodiazol-1-yl)butanoic acid]	–	> 1000 nM
Cc1ncsc1-c1ccc([C@H](C)NC(=O)[C@@H]2C[C@@H](O)CN2C(=O)[C@@H](NC(=O)Cc2cccc(OC[C@H](CCC(N)=O)NC(=O)[C@@H]3Cc4cccc5c4N3C(=O)[C@@H](NC(=O)c3cc4cc(C(=O)P(=O)(O)O)ccc4[nH]3)CC5)c2)C(C)(C)C)cc1 [Compound I-256, 2-[[(2S,11S)-2-[[(2S)-4-carbamoyl-1-[3-([[(2S)-1-[(2S,4R)-4-hydroxy-2-[[(1S)-1-[4-(4-methyl-1,3-thiazol-5-yl)phenyl]ethyl]carbamoyl]pyrrolidin-1-yl]-3,3-dimethyl-1-oxobutan-2-yl]carbamoyl]methyl)phenoxy]butan-2-yl]carbamoyl]-12-oxo-1-azatricyclo[6.4.1.0^[4,13]]trideca-4(13),5,7-trien-11-yl]carbamoyl]-1H-indole-5-carbonylphosphonic acid]	> 1000 nM	–
Cc1ncsc1-c1ccc([C@H](C)NC(=O)[C@@H]2C[C@@H](O)CN2C(=O)[C@@H](NC(=O)CCCCCc2cc(Cl)cc(NC(=O)[C@H](CCC(N)=O)NC(=O)[C@@H]3Cc4cccc5c4N3C(=O)[C@@H](NC(=O)c3cc4cc(C(=O)P(=O)(O)O)ccc4[nH]3)CC5)c2)C(C)(C)C)cc1 [Compound I-257, 2-[[(2S,11S)-2-[[(1S)-3-carbamoyl-1-[[3-chloro-5-(5[[(2S)-1-[(2S,4R)-4-hydroxy-2-[[(1S)-1-[4-(4-methyl-1,3-thiazol-5-yl)phenyl]ethyl]carbamoyl]pyrrolidin-1-yl]-3,3-dimethyl-1-oxobutan-2-yl]carbamoyl]pentyl)phenyl]carbamoyl]propyl]carbamoyl]-12-oxo-1-azatricyclo[6.4.1.0^[4,13]]trideca-4(13),5,7-trien-11-yl]carbamoyl]-1H-indole-5-carbonylphosphonic acid]	10 to 100 nM	–
